Experimental data as given in patent US10456407B2, “Combination therapy for treating cancer” (Epizyme, Inc., priority 2015, dated 2019).

Tests used:
Type in all cases: cell-based
RL cells = assay: RT2 Glucocorticoid signaling PCR array, RL (Table 4e, printed RI) cell line; details: 4 days, Cpd44 1 uM, Pred 10-fold below 4-day IC50, vs DMSO, B2M-normalized
SU-DHL10 cells = assay: RT2 Glucocorticoid signaling PCR array, SU-DHL10 (SUDHL10) cell line (Table 4d); details: SUDHL10, 4 days, vs DMSO
SMARCB1 protein levels = assay: SMARCB1 (INI1) western blot in lymphoma cells; details: single agent treatment
Description: Glucocorticoid bound GR molecules move to the nucleus and can act as either transcriptional activator or repressor, depending on the cellular environment. […] Accessibility to GR binding sites can further be enhanced by ATP-dependent chromatin remodeling, and the SWI/SNF complex plays a key role in this activity. Not wishing to be bound by a particular theory or a specific mechanism of action, it is conceivable that aberrant chromatin repression, induced by EZH2 mediated hypertrimethylation of H3K27, can block some of the otherwise accessible GR binding sites, interfering with normal GR mediated gene induction or repression.

OCI-Ly19 cells = assay: RT2 Glucocorticoid signaling PCR array, OCI-LY19 (Table 4a, printed OCT) cell line; details: vs DMSO

Compound: C[C@]12C=CC(=O)C=C1CC[C@@H]1[C@@H]2[C@@H](O)C[C@@]2(C)[C@H]1CC[C@]2(O)C(=O)CO [Prednisolone, prednisolone]
- ΔΔCT (RL cells; ADARB1 mRNA): 0.413
- ΔΔCT (RL cells; AFF1 mRNA): −1.390
- ΔΔCT (RL cells; AK2 mRNA): 0.686
- ΔΔCT (RL cells; AMPD3 mRNA): −0.544
- ΔΔCT (RL cells; ANGPTL4 mRNA): 1.668
- ΔΔCT (RL cells; ANXA4 mRNA): 0.131
- ΔΔCT (RL cells; ARID68 mRNA): 0.833
- ΔΔCT (RL cells; ASPH mRNA): 0.771
- ΔΔCT (RL cells; BCL6 mRNA): 0.937
- ΔΔCT (RL cells; CEBPB mRNA): 2.638
- ΔΔCT (RL cells; CREB1 mRNA): 0.483
- ΔΔCT (RL cells; CREB3L4 mRNA): 0.129
- ΔΔCT (RL cells; DDIT4 mRNA): 1.431
- ΔΔCT (RL cells; DUSP1 mRNA): −0.153
- ΔΔCT (RL cells; EDN1 mRNA): 6.595
- ΔΔCT (RL cells; EHD3 mRNA): 0.055
- ΔΔCT (RL cells; FK8PS mRNA): −0.333
- ΔΔCT (RL cells; FOSL2 mRNA): 2.300
- ΔΔCT (RL cells; GDPD1 mRNA): 0.711
- ΔΔCT (RL cells; GLUL mRNA): 1.007
- ΔΔCT (RL cells; GOT1 mRNA): 1.467
- ΔΔCT (RL cells; H6PD mRNA): 0.935
- ΔΔCT (RL cells; HNRPLL mRNA): 0.789
- ΔΔCT (RL cells; IL1RN mRNA): −0.808
- ΔΔCT (RL cells; IL6R mRNA): 0.885
- ΔΔCT (RL cells; IL10 mRNA): −0.083
- ΔΔCT (RL cells; KLF13 mRNA): 0.346
- ΔΔCT (RL cells; LOX mRNA): −0.132
- ΔΔCT (RL cells; MT2A mRNA): 1.656
- ΔΔCT (RL cells; NFKBIA mRNA): 0.853
- ΔΔCT (RL cells; NR3C1 mRNA): 0.952
- ΔΔCT (RL cells; PDCD7 mRNA): 0.394
- ΔΔCT (RL cells; PDP1 mRNA): 0.742
- ΔΔCT (RL cells; PER1 mRNA): 2.230
- ΔΔCT (RL cells; PER2 mRNA): 0.250
- ΔΔCT (RL cells; PLEKHF1 mRNA): 1.075
- ΔΔCT (RL cells; POU2F2 mRNA): 0.797
- ΔΔCT (RL cells; RA5A3 mRNA): 1.543
- ΔΔCT (RL cells; RGS2 mRNA): 0.772
- ΔΔCT (RL cells; SGK1 mRNA): 0.848
- ΔΔCT (RL cells; SLC10A6 mRNA): −1.725
- ΔΔCT (RL cells; SNTA1 mRNA): 1.144
- ΔΔCT (RL cells; SPHK1 mRNA): 2.618
- ΔΔCT (RL cells; SPSB1 mRNA): 2.005
- ΔΔCT (RL cells; STAT5A mRNA): 0.789
- ΔΔCT (RL cells; STAT5B mRNA): 0.512
- ΔΔCT (RL cells; TBL1XR1 mRNA): 0.794
- ΔΔCT (RL cells; TNF mRNA): −0.598
- ΔΔCT (RL cells; TNFAIP3 mRNA): 1.561
- ΔΔCT (RL cells; TSC22D3 mRNA): −1.431
- ΔΔCT (RL cells; USP2 mRNA): −0.661
- ΔΔCT (RL cells; USPS4 mRNA): 0.491
- ΔΔCT (RL cells; VDR mRNA): 1.247
- ΔΔCT (RL cells; VLDLR mRNA): −1.862
- ΔΔCT (RL cells; ZFP36 mRNA): 0.925
- ΔΔCT (RL cells; ZNF281 mRNA): 0.371
- AFF1 ΔΔCT (SU-DHL10 cells): −0.106
- AMPD3 ΔΔCT (SU-DHL10 cells): −0.327
- ANGPTL4 ΔΔCT (SU-DHL10 cells): −0.105
- ANXA4 ΔΔCT (SU-DHL10 cells): −0.001
- ATF4 ΔΔCT (SU-DHL10 cells): 1.570
- BCL6 ΔΔCT (SU-DHL10 cells): 1.067
- CEBPB ΔΔCT (SU-DHL10 cells): 2.427
- CREB1 ΔΔCT (SU-DHL10 cells): 0.028
- CREB3L4 ΔΔCT (SU-DHL10 cells): 1.120
- CREB3 ΔΔCT (SU-DHL10 cells): −0.098
- CYB561 ΔΔCT (SU-DHL10 cells): 0.164
- DUSP1 ΔΔCT (SU-DHL10 cells): −0.719
- EHD3 ΔΔCT (SU-DHL10 cells): −0.272
- FK8PS ΔΔCT (SU-DHL10 cells): −1.599
- FOSL2 ΔΔCT (SU-DHL10 cells): −1.511
- GDPD1 ΔΔCT (SU-DHL10 cells): −0.938
- GOT1 ΔΔCT (SU-DHL10 cells): 0.781
- HNRPLL ΔΔCT (SU-DHL10 cells): 0.492
- KLF9 ΔΔCT (SU-DHL10 cells): −1.904
- KLF13 ΔΔCT (SU-DHL10 cells): −2.191
- MT2A ΔΔCT (SU-DHL10 cells): 1.837
- NFKBIA ΔΔCT (SU-DHL10 cells): 0.069
- PDCD7 ΔΔCT (SU-DHL10 cells): 0.428
- PDP1 ΔΔCT (SU-DHL10 cells): 0.512
- PER1 ΔΔCT (SU-DHL10 cells): −0.675
- PIK3R1 ΔΔCT (SU-DHL10 cells): −0.040
- PLEKHF1 ΔΔCT (SU-DHL10 cells): −0.326
- POU2F1 ΔΔCT (SU-DHL10 cells): −0.060
- POU2F2 ΔΔCT (SU-DHL10 cells): −2.104
- RA5A3 ΔΔCT (SU-DHL10 cells): 0.050
- RGS2 ΔΔCT (SU-DHL10 cells): 1.368
- RHOB ΔΔCT (SU-DHL10 cells): 0.157
- SESN1 ΔΔCT (SU-DHL10 cells): −3.413
- SGK1 ΔΔCT (SU-DHL10 cells): 0.975
- SLC10A6 ΔΔCT (SU-DHL10 cells): −1.545
- SLC19A2 ΔΔCT (SU-DHL10 cells): 1.693
- SLC22A5 ΔΔCT (SU-DHL10 cells): 1.923
- SNTA1 ΔΔCT (SU-DHL10 cells): −0.066
- SPSB1 ΔΔCT (SU-DHL10 cells): −0.629
- STAT5A ΔΔCT (SU-DHL10 cells): 0.381
- TBL1XR1 ΔΔCT (SU-DHL10 cells): 0.105
- TNFAIP3 ΔΔCT (SU-DHL10 cells): 0.950
- TSC22D3 ΔΔCT (SU-DHL10 cells): −1.509
- USP2 ΔΔCT (SU-DHL10 cells): −0.292
- USPS4 ΔΔCT (SU-DHL10 cells): 0.041
- VLDLR ΔΔCT (SU-DHL10 cells): 4.597
- ZFP36 ΔΔCT (SU-DHL10 cells): −0.420
- ZHX3 ΔΔCT (SU-DHL10 cells): 0.027
- ZNF281 ΔΔCT (SU-DHL10 cells): −0.465
- SMARCB1 protein levels (SMARCB1 protein levels): no effect
- ΔΔCT, ADARB1 (OCI-Ly19 cells; gene ADARB1): −0.049
- ΔΔCT, AK2 (OCI-Ly19 cells; gene AK2): −0.063
- ΔΔCT, ANGPTL4 (OCI-Ly19 cells; gene ANGPTL4): −0.754
- ΔΔCT, ARID68 (OCI-Ly19 cells; gene ARID68): −0.079
- ΔΔCT, ASPH (OCI-Ly19 cells; gene ASPH): 0.346
- ΔΔCT, ATF4 (OCI-Ly19 cells; gene ATF4): 0.456
- ΔΔCT, BCL6 (OCI-Ly19 cells; gene BCL6): 0.239
- ΔΔCT, CEBPB (OCI-Ly19 cells; gene CEBPB): 0.686
- ΔΔCT COL4A2 (OCI-Ly19 cells; gene COL4A2): 1.601
- ΔΔCT, CREB3L4 (OCI-Ly19 cells; gene CREB3L4): 0.152
- ΔΔCT CTGF (OCI-Ly19 cells; gene CTGF): −1.080
- ΔΔCT, DDIT4 (OCI-Ly19 cells; gene DDIT4): −1.173
- ΔΔCT, DUSP1 (OCI-Ly19 cells; gene DUSP1): 0.164
- ΔΔCT, EHD3 (OCI-Ly19 cells; gene EHD3): −0.773
- ΔΔCT, FK8PS (OCI-Ly19 cells; gene FK8PS): −0.873
- ΔΔCT, FOSL2 (OCI-Ly19 cells; gene FOSL2): −0.480
- ΔΔCT, GDPD1 (OCI-Ly19 cells; gene GDPD1): 1.130
- ΔΔCT GLUL (OCI-Ly19 cells; gene GLUL): −0.090
- ΔΔCT, H6PD (OCI-Ly19 cells; gene H6PD): −0.483
- ΔΔCT, HNRPLL (OCI-Ly19 cells; gene HNRPLL): −0.156
- ΔΔCT, KLF9 (OCI-Ly19 cells; gene KLF9): −1.571
- ΔΔCT, KLF13 (OCI-Ly19 cells; gene KLF13): −0.075
- ΔΔCT, LOX (OCI-Ly19 cells; gene LOX): −1.179
- ΔΔCT MERTK (OCI-Ly19 cells; gene MERTK): −0.277
- ΔΔCT MTZA (OCI-Ly19 cells; gene MTZA): −0.169
- ΔΔCT, NFKBIA (OCI-Ly19 cells; gene NFKBIA): 0.043
- ΔΔCT, NR3C1 (OCI-Ly19 cells; gene NR3C1): −0.286
- ΔΔCT PDCC7 (OCI-Ly19 cells; gene PDCC7): 4.571
- ΔΔCT PDGFRB (OCI-Ly19 cells; gene PDGFRB): −2.242
- ΔΔCT, PDP1 (OCI-Ly19 cells; gene PDP1): −0.422
- ΔΔCT, PIK3R1 (OCI-Ly19 cells; gene PIK3R1): −0.119
- ΔΔCT, PLEKHF1 (OCI-Ly19 cells; gene PLEKHF1): 0.139
- ΔΔCT, POU2F1 (OCI-Ly19 cells; gene POU2F1): 0.048
- ΔΔCT, POU2F2 (OCI-Ly19 cells; gene POU2F2): −0.574
- ΔΔCT, RASA3 (OCI-Ly19 cells; gene RASA3): 0.009
- ΔΔCT, RHOB (OCI-Ly19 cells; gene RHOB): −1.763
- ΔΔCT, SESN1 (OCI-Ly19 cells; gene SESN1): 0.041
- ΔΔCT, SGK1 (OCI-Ly19 cells; gene SGK1): −1.154
- ΔΔCT, SLC10A6 (OCI-Ly19 cells; gene SLC10A6): −0.369
- ΔΔCT, SLC19A2 (OCI-Ly19 cells; gene SLC19A2): 0.410
- ΔΔCT, SLC22A5 (OCI-Ly19 cells; gene SLC22A5): 0.236
- ΔΔCT, SNTA1 (OCI-Ly19 cells; gene SNTA1): 0.119
- ΔΔCT, SPHK1 (OCI-Ly19 cells; gene SPHK1): 0.022
- ΔΔCT, STAT5A (OCI-Ly19 cells; gene STAT5A): −0.064
- ΔΔCT, STAT5B (OCI-Ly19 cells; gene STAT5B): 0.330
- ΔΔCT, TNFAIP3 (OCI-Ly19 cells; gene TNFAIP3): 0.250
- ΔΔCT, TSC22D3 (OCI-Ly19 cells; gene TSC22D3): −1.695
- ΔΔCT, USP2 (OCI-Ly19 cells; gene USP2): −0.585
- ΔΔCT, USPS4 (OCI-Ly19 cells; gene USPS4): 0.286
- ΔΔCT, VDR (OCI-Ly19 cells; gene VDR): −0.730
- ΔΔCT, ZHX3 (OCI-Ly19 cells; gene ZHX3): −0.730
- ΔΔCT, ZNF281 (OCI-Ly19 cells; gene ZNF281): 0.871
